Data published in patent US20060030537A1, “Ceramide kinase and uses thereof” (priority 2004, published 2006).
pEC50, pIC50: −log10 of the molar value.

Tests used:
[1] = test system: A549 cells; test: Quantification of arachidonic acid (AA) release in A549 cells; format: cell-based; details: for AA release (lipid specificity): 1 μM lipid, 2 hours
Protocol: (§1) Cell Culture: A549 lung adenocarcinoma cells (epithelial-derived) were grown in low glucose DMEM (Invitrogen) supplemented with L-glutamine, 10% (v/v) fetal bovine serum (Invitrogen), 200 U/ml of penicillin G sodium, and 200 μg/ml of streptomycin sulfate. Cells were maintained under 80% confluency and standard incubator conditions (humidified atmosphere, 95% air, 5% CO2, 370 C). For treatment, cells were incubated for 2 hours in low glucose DMEM (Invitrogen) supplemented with L-glutamine, 2% (v/v) fetal bovine serum (Invitrogen), 200 U/ml of penicillin G sodium, and 200 μg/ml of streptomycin sulfate prior to the addition of agonist.
(§2) Quantification of arachidonic acid (AA) release: A549 cells (5×10^4) were labeled overnight with 5 μCi/mL [^3H]-AA (5 nM) (NEN). Cells were washed and incubated in DMEM supplemented with 2% fetal bovine serum for 2 hours. Following treatment, media was transferred to 1.5 mL polypropylene tubes, centrifuged at 10,000×g, and ^3H-AA cpm determined by scintillation counting. Results were controlled for equivalent number of cells quantified by MTT assay as described (Chalfant, C. E., Rathman, K., Pinkerman, R. L., Wood, R. E., Obeid, L. M., Ogretmen, B., and Hannun, Y. A. (2002) J. Biol. Chem. 277, 12587-12595) and by verification of total AA labeling by scintillation counting. For the experiments in FIG. 4, purified SMase D was obtained from Dr. Alfred H. Merrill, Jr., and SMase C (purified from Bacillus cereus) was obtained commercially from Sigma.
RNAi design and transfections: Knock-downs of ceramide kinase were performed essentially as described using sequence specific siRNA reagents (http:www.mpibpc.gwdg.de/abteilungen/100/105/sirna.html) (Lassus, P., Opitz-Araya, X., and Lazebnik, Y. (2002) Science 297, 1352-1354) using human ceramide kinase RNAi starting 142 nucleotides from start codon ([…]dTd (SEQ ID NO: 3) and […]dTd (SEQ ID NO:4)). All sequences were evaluated against the database using the NIH blast program to test for specificity (Xeragon, A Qiagen Company). A549 cells (3×10^4) were transfected with the 21-nucleotide duplexes using OligofectAMINE (Invitrogen) as recommended by the manufacturer. Following the 4 hour transfection, cells were treated and assayed for AA release or PGE2 synthesis at 26 hours post-transfection.

[2] = test system: C-1-P levels; test: Ceramide-1-phosphate levels by pulse-labeling with D-e-C6 NBD-ceramide in A549 cells; format: cell-based
Protocol: (§3) FIGS. 5A-5C. IL-1β and calcium ionophore increase ceramide-1-phosphate production and ceramide kinase activity. FIGS. 5A and 5B. The effect of IL-1 and A23187 on C-1-P levels and AA liberation. A549 cells (2×10^5) were labeled overnight with 10 μCi/mL [^3H]-arachidonic acid (10 nM), washed, and then treated with either 2.5 ng/mL of IL-1β (FIG. 5A) or 1 μg/mL of A23187 (FIG. 5B) for the indicated times. Two hours prior to Bligh-Dyer extraction, cells were chased with 20 μM of D-e-C6 NBD-ceramide (Matreya). At the appropriate times, media was taken for AA analysis, and lipids from the cells were extracted by the Bligh-Dyer method followed by analysis of NBD-C-1-P formation. Data are presented as % control of C-1-P levels (J) and AA release (B). Data are representative of three separate determinations on 2 separate occasions. FIG. 5C. IL-1β and calcium ionophore increase ceramide kinase activity. A549 cells (5×10^5) were treated with either 2.5 ng/mL of IL-1β for 3.5 hours or 1 μg/mL of A23187 for 5 minutes. Cells were then washed, lysed in assay buffer, and assayed for ceramide kinase activity. Data is presented as % control of ceramide kinase activity (Arbitrary densitometry units of fluorescent NBD-C-1-P produced/min/mg of total cellular protein). Data are representative of three separate determinations on 2 separate occasions.
Quantification of ceramide-1-phosphate levels by pulse-labeling with D-e-C6 NBD-ceramide: Two hours prior to Bligh-Dyer extraction, cells were chased with 20 μM of D-e-C6 NBD-ceramide (Matreya). At the appropriate times, lipids were extracted by the Bligh-Dyer method, analyzed for NBD-C-1-P formation using TLC analysis, and results normalized to total lipid phosphate as described (Perry, D. K., Bielawska, A., and Hannun, Y. A. (2000) Methods Enzymol. 312, 22-31).

[3] = test system: ceramide kinase; test: Ceramide kinase assay on lysates of treated or transfected A549 cells; format: cell-based, human
Protocol: as §3
FIGS. 6A-6B. Ceramide kinase RNAi downregulates endogenous ceramide kinase activity and mRNA levels. FIG. 6A. The effect of ceramide kinase RNAi on endogenous ceramide kinase activity. […] Following the same procedure as outlined in FIG. 6A, total RNA was extracted and analyzed via logarithmic reverse-transcriptase polymerase chain reaction for human ceramide kinase and 18s ribosomal RNA. […]
Ceramide Kinase Assay: Ceramide kinase activity was measured as described previously with slight modifications (Bajjalieh, S., and Batchelor, R. (2001) Methods Enzymol. 311, 207-215). […] Following Bligh-Dyer extraction, lipids were separated by thin layer chromatography, and NBD-C-1-P was visualized/quantified by fluorescent phosphorimaging.

[4] = test system: L929 fibroblasts; test: AA release in L929 fibroblasts; format: cell-based; details: 1 μM, after 1 hour
Protocol: (§4) FIGS. 3A-3B. FIG. 3A. The effects of ceramide-1-phosphate on TXB2 synthesis. A549 cells (1×10^5) were treated with D-e-C16 ceramide-1-phosphate (1 μM) solubilized in 2% dodecane/98% ethanol (final concentration in treatments was 0.002% dodecane/0.098% ethanol (EtOH)) for the indicated times. The results are presented as % control of TXB2 controlled for equivalent number of cells by MTT assay. Data are representative of 3 separate determinations on 2 separate occasions. FIG. 3B. The effects of ceramide-1-phosphate on AA release and PGE2 synthesis in L929 fibroblasts. L929 cells (5×10^4) were labeled overnight with 5 μCi/mL [^3H]-arachidonic acid (5 nM). Cells were washed and placed in DMEM supplemented with 2% fetal bovine serum for two hours. […]
as §2, with “Cells were washed and incubated in DMEM supplemented with 2% fetal bovine serum for 2 hours.” left out, “For the experiments in FIG. 4, purified SMase D was obtained from Dr. Alfred H. Merrill, Jr., and SMase C (purified from Bacillus cereus) was obtained commercially from Sigma.” left out

[5] = molecular target: protein phosphatase 2A; test: Inhibition of protein phosphatase 2A; format: biochemical
[6] = molecular target: protein phosphatase-1; test: Inhibition of protein phosphatase-1; format: biochemical
[7] = test system: A549 cells; test: Quantification of prostaglandin E2 synthesis in A549 cells (EIA); format: cell-based; details: 2.5 μM, only after 1 hour
Protocol: as §1
Quantification of prostaglandin E2 and thromboxane B2 synthesis: For measurement of PGE2 and TXB2 levels, aliquots of media were taken at indicated time points and assayed according to manufacturer's instructions using the prostaglandin E2 and thromboxane B2 monoclonal EIA Kit from Cayman Chemical. Briefly, media containing PGE2 or TXB2 competes with PGE2 or TXB2 acetylcholinesterase conjugate for a limited amount of monoclonal antibody. The antibody-PGE2 or -TXB2 conjugate binds to a goat-anti-mouse antibody previously attached to the 96-well plate. The plate is washed to remove unbound reagents and then the substrate for acetylcholinesterase is provided. […] Results were controlled for equivalent number of cells quantified by MTT assay. […]

[8] = test system: COX-2; test: COX-2 expression by western immunoblotting; format: cell-based
[9] = test system: A549 cells; test: Quantification of thromboxane B2 synthesis in A549 cells (EIA); format: cell-based; details: 1 μM
Protocol: as §4, with “hours. Cells were then treated with 2.5 μM D-e-C16 ceramide-1-phosphate (solubilized in 98% ethanol/2% dodecane) for the indicated times.” for “hours.”
(§5) Quantification of prostaglandin E2 and thromboxane B2 synthesis: For measurement of PGE2 and TXB2 levels, aliquots of media were taken at indicated time points and assayed according to manufacturer's instructions using the prostaglandin E2 and thromboxane B2 monoclonal EIA Kit from Cayman Chemical. […] Results were controlled for equivalent number of cells quantified by MTT assay.

[10] = test system: L929 fibroblasts; test: PGE2 synthesis in L929 fibroblasts; format: cell-based; details: L929 fibroblasts that do not express COX-2
Protocol: as §4, with “hours. Cells were then treated with 2.5 μM D-e-C16 ceramide-1-phosphate (solubilized in 98% ethanol/2% dodecane) for the indicated times.” for “hours.”
as §5

CCCCCCCC/C=C\CCCCCCCC(=O)OC[C@H](COP(=O)(O)O)OC(=O)CCCCCCC/C=C\CCCCCCCC [PA, di-oleoyl phosphatidic acid]
AA release (lipid specificity) [1]: Only C-1-P induced significant AA release

di-oleoylglycerol [DAG]
AA release (lipid specificity) [1]: Only C-1-P induced significant AA release

CCCCCCCCCCCCC/C=C/[C@@H](O)[C@H](CO)NC(=O)CCCCCCCCCCCCCCC [CER, D-erythro C16 ceramide]
AA release (lipid specificity) [1]: small increase
AA release, long term treatment ([1]; 8 hours): no further increase

IL-1β
increase in C-1-P levels ([2]; 2.5 ng/mL, after 4 hours): 242%
increase of ceramide kinase activity ([3]; 2.5 ng/mL, 3.5 hours): 187%

CCCCCCCCCCCCC/C=C/[C@@H](O)[C@@H](N)COP(=O)(O)O [S-1-P, D-erytho-sphingosine-1-phosphate]
AA release (lipid specificity) [1]: Only C-1-P induced significant AA release

CNc1ccc2oc(C[C@H]3O[C@@]4(CC[C@H]3C)O[C@H]([C@H](C)C(=O)c3ccc[nH]3)[C@H](C)C[C@H]4C)nc2c1C(=O)O [A23187]
maximal increase in C-1-P levels ([2]; 1 μg/mL, after 10 minutes): approximately 4 fold
C-1-P levels ([2]; 1 μg/mL, within 5 minutes of treatment): significant increase
increase of ceramide kinase activity ([3]; 1 μg/mL, 5 minutes): 216%
time to increased AA release ([1]; 1 μg/mL): within minutes

CCCCCCCCCCCCC/C=C/[C@@H](O)[C@H](COP(=O)(O)O)NC(=O)CCCCCCCCCCCCCCC [C-1-P, D-erythro-C16 ceramide-1-phosphate]
AA release over basal release [4]: 225%
pIC50 [5]: 7.30
pIC50 [6]: 7.30
PGE2 synthesis [7]: Increased
concentration as low as which induces a significant increase in AA release [1]: 100 nM
AA release (lipid specificity) [1]: induced significant AA release
maximal early increase in AA release ([1]; 2.5 μM, after 20 minutes): approximately 2 fold
AA release ([1]; 2.5 μM, after 1 hour, following reuptake): sustained increase
pEC50 ([1]; 8 hours, read-out: EC50 of effect on AA release): 6.40
expression of COX-2 [8]: no effect
increase of TXB2 ([9]; after 2 hours): 2.5 fold
increase of TXB2 ([9]; after 4 hours): 11 fold
PGE2 synthesis/release [10]: not observed
